Source: patent US9409884B2 (Rigel Pharmaceuticals, Inc., priority 2012, dated 2016)

target: AMPK; test: AMPK activation, enzyme-linked immunosorbent assay; type: biochemical; conditions: Table 14, compounds of Table 7
Outline: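 Read-out: ELISA, used to detect compound-driven activation of AMPK.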

Structure (SMILES) | EC50 [nM]
CS(=O)(=O)c1ccc(OC2CCN(C(=O)c3ccc(C(=O)Nc4ccc(Oc5ccc(S(F)(F)(F)(F)F)cc5)nc4)cn3)CC2)cc1 [Compound 7-1, 6-(4-(4-(methylsulfonyl)phenoxy)piperidine-1-carbonyl)-N-(6-(4-(pentafluorosulfanyl)phenoxy)pyridin-3-yl)nicotinamide] | 1000 to 10000
CS(=O)(=O)c1ccc(OC2CCN(C(=O)c3ccc(C(=O)Nc4ccc(Oc5ccc(S(F)(F)(F)(F)F)cc5)nc4)nc3)CC2)cc1 [Compound 7-2, 5-(4-(4-(methylsulfonyl)phenoxy)piperidine-1-carbonyl)-N-(6-(4-(pentafluorosulfanyl)phenoxy)pyridin-3-yl)picolinamide] | < 1000
COc1ccc(C(=O)C2CCN(C(=O)c3ccc(C(=O)Nc4ccc(Oc5ccc(S(F)(F)(F)(F)F)cc5)nc4)nc3)CC2)cc1 [Compound 7-3, 5-(4-(4-methoxybenzoyl)piperidine-1-carbonyl)-N-(6-(4-(pentafluorosulfanyl)phenoxy)pyridin-3-yl)picolinamide] | < 1000
O=C(Nc1ccc(Oc2ccc(S(F)(F)(F)(F)F)cc2)nc1)c1ccc(C(=O)N2CCC(C(=O)c3ccc(N4CCCC4)cc3)CC2)cn1 [Compound 7-4, 5-(4-(4-(pyrrolidin-1-yl)benzoyl)piperidine-1-carbonyl)-N-(6-(4-(pentafluorosulfanyl)phenoxy)pyridin-3-yl)picolinamide] | < 1000
N#Cc1ccc(OC2CCN(C(=O)c3ccc(C(=O)Nc4ccc(Oc5ccc(S(F)(F)(F)(F)F)cc5)nc4)nc3)CC2)cc1 [Compound 7-5, 5-(4-(4-cyanophenoxy)piperidine-1-carbonyl)-N-(6-(4-(pentafluorosulfanyl)phenoxy)pyridin-3-yl)picolinamide] | < 1000
CC(C)S(=O)(=O)c1ccc(N2CCN(C(=O)c3ccc(C(=O)Nc4ccc(Oc5ccc(S(F)(F)(F)(F)F)cc5)nc4)nc3)CC2)cc1 [Compound 7-6, 5-(4-(4-(isopropylsulfonyl)phenyl)piperazine-1-carbonyl)-N-(6-(4-(pentafluorosulfanyl)phenoxy)pyridin-3-yl)picolinamide] | < 1000
COc1ccc(C(=O)C2CCCN(C(=O)c3ccc(C(=O)NC4CCN(Cc5ccc(C#N)cc5)CC4)cn3)C2)cc1 (stereo not drawn) [Compound 7-7, N-(1-(4-cyanobenzyl)piperidin-4-yl)-6-(3-(4-methoxybenzoyl)piperidine-1-carbonyl)nicotinamide] | 1000 to 10000
COc1ccc(CN2CCC(NC(=O)c3ccc(C(=O)N4CCCC(C(=O)c5ccc(OC)cc5)C4)nc3)CC2)cc1 (stereo not drawn) [Compound 7-8, 6-(3-(4-methoxybenzoyl)piperidine-1-carbonyl)-N-(1-(4-methoxybenzyl)piperidin-4-yl)nicotinamide] | 1000 to 10000
COc1ccc(C(=O)C2CCCN(C(=O)c3ccc(C(=O)NC4CCN(Cc5ccc(F)cc5)CC4)cn3)C2)cc1 (stereo not drawn) [Compound 7-9, N-(1-(4-fluorobenzyl)piperidin-4-yl)-6-(3-(4-methoxybenzoyl)piperidine-1-carbonyl)nicotinamide] | 1000 to 10000
COc1ccc(C(=O)C2CCCN(C(=O)c3ccc(C(=O)Nc4ccc(Oc5ccc(F)cc5)nc4)cn3)C2)cc1 (stereo not drawn) [Compound 7-10, N-(6-(4-fluorophenoxy)pyridin-3-yl)-6-(3-(4-methoxybenzoyl)piperidine-1-carbonyl)nicotinamide] | 1000 to 10000
COc1ccc(C(=O)C2CCCN(C(=O)c3ccc(C(=O)Nc4ccc(Oc5ccc(C(C)=O)cc5)nc4)cn3)C2)cc1 (stereo not drawn) [Compound 7-11, N-(6-(4-acetylphenoxy)pyridin-3-yl)-6-(3-(4-methoxybenzoyl)piperidine-1-carbonyl)nicotinamide] | 1000 to 10000
Cc1cc(OC2CCN(C(=O)c3ccc(C(=O)NC4CCN(Cc5ccc(C#N)cc5)CC4)cn3)CC2)ccc1S(C)(=O)=O [Compound 7-13, N-(1-(4-cyanobenzyl)piperidin-4-yl)-6-(4-(3-methyl-4-(methylsulfonyl)phenoxy)piperidine-1-carbonyl) nicotinamide] | 1000 to 10000
Cc1cc(OC2CCN(C(=O)c3ccc(C(=O)NC4CCN(Cc5ccc(OC(F)(F)F)cc5)CC4)cn3)CC2)ccc1S(C)(=O)=O [Compound 7-14, 6-(4-(3-methyl-4-(methylsulfonyl)phenoxy)piperidine-1-carbonyl)-N-(1-(4-(trifluoromethoxy)benzyl)piperidin-4-yl)nicotinamide] | 1000 to 10000
Cc1cc(OC2CCN(C(=O)c3ccc(C(=O)Nc4ccc(Oc5ccc(C#N)cc5)nc4)cn3)CC2)ccc1S(C)(=O)=O [Compound 7-15, N-(6-(4-cyanophenoxy)pyridin-3-yl)-6-(4-(3-methyl-4-(methylsulfonyl)phenoxy)piperidine-1-carbonyl) nicotinamide] | 1000 to 10000
COc1ccc(CN2CCC(NC(=O)c3ccc(C(=O)N4CCC(Oc5ccc(S(C)(=O)=O)c(C)c5)CC4)nc3)CC2)cc1 [Compound 7-16, N-(1-(4-methoxybenzyl)piperidin-4-yl)-6-(4-(3-methyl-4-(methylsulfonyl)phenoxy)piperidine-1-carbonyl) nicotinamide] | 1000 to 10000

Other lines, results leading:

EC50 [nM] | Structure (SMILES)
< 1000 | COCCN(C(=O)c1ccc(C(=O)N2CCC(C(=O)c3ccc(OC)cc3)CC2)nc1)C1CCN(Cc2ccc(C#N)cc2)CC1 [Compound 7-17, N-(1-(4-cyanobenzyl)piperidin-4-yl)-6-(4-(4-methoxybenzoyl)piperidine-1-carbonyl)-N-(2-methoxyethyl)nicotinamide]
< 1000 | COCCN(C(=O)c1ccc(C(=O)N2CCC(C(=O)c3ccc(OC)cc3)CC2)nc1)C1CCN(Cc2ccc(OC(F)(F)F)cc2)CC1 [Compound 7-18, 6-(4-(4-methoxybenzoyl)piperidine-1-carbonyl)-N-(2-methoxyethyl)-N-(1-(4-(trifluoromethoxy)benzyl)piperidin-4-yl)nicotinamide]
10000 to 20000 | COc1ccc(C(=O)C2CCN(C(=O)c3ncc(C(=O)NC4CCN(Cc5ccc(C#N)cc5)CC4)cc3CCCNC(=O)CCOCCOCCOCCOCCNC(=O)CCCC[C@@H]3SC[C@@H]4NC(=O)N[C@@H]43)CC2)cc1 [Compound 7-19, N-(1-(4-cyanobenzyl)piperidin-4-yl)-5-(5,21-dioxo-25-((3aS,4S,6aR)-2-oxohexahydro-1H-thieno[3,4-d]imidazol-4-yl)-8,11,14,17-tetraoxa-4,20-diazapentacosyl)-6-(4-(4-methoxybenzoyl)piperidine-1-carbonyl)nicotinamide]
< 1000 | CC(=O)c1ccc(Oc2ccc(NC(=O)c3ccc(C(=O)N4CCC(Oc5ccc6sc(C)nc6c5)CC4)nc3)cn2)cc1 [Compound 7-20, N-(6-(4-acetylphenoxy)pyridin-3-yl)-6-(4-(2-methylbenzo[d]thiazol-5-yloxy)piperidine-1-carbonyl)nicotinamide]
< 1000 | COc1ccc(CN2CCC(NC(=O)c3ccc(C(=O)N4CCC(C(=O)c5ccc(OC)cc5)CC4)nc3)[C@@H](F)C2)cc1 (stereo partly drawn) [Compound 7-21, N-((3,4-trans)-3-fluoro-1-(4-methoxybenzyl)piperidin-4-yl)-6-(4-(4-methoxybenzoyl)piperidine-1-carbonyl)nicotinamide]
< 1000 | Cc1nc2cc(OC3CCN(C(=O)c4ccc(C(=O)NC5CCN(Cc6ccc(C#N)cc6)CC5)cn4)CC3)ccc2s1 [Compound 7-22, N-(1-(4-cyanobenzyl)piperidin-4-yl)-6-(4-(2-methylbenzo[d]thiazol-5-yloxy)piperidine-1-carbonyl)nicotinamide]
